# Assay results published in PubChem BioAssay AID624285 (Broad Institute, 2012).
# Where “and” joins values, the source holds several entries; their conditions need not be identical. Equal values may be shown once. Calls of active or inactive are those of the source.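 How the source made its calls: active means signal-decreasing dose-response curve whose fitted half-maximal concentration is at or below twice the highest valid tested dose; inconclusive means flat fit at 30 to 70% signal loss, or poor fit; inactive means the rest.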
# Test system: NIH3T3/HeLa viability, CellTiter-Glo ATP luminescence, 24 h
# Assay: cytotoxicity in mammalian cells, dose response, cytotoxicity control for PDI inhibitor project, cell-based, 24 h, luminescence, cherry-picked samples (AID 624285)
# Conditions: not given
row,Structure (SMILES),AC50
1,C[C@]12CC[C@H]3C(=CCc4cc(O)ccc43)[C@@H]1CCC2=O,> 70 µM (inactive)
2,COc1cccc2c1C(=O)c1c(O)c3c(c(O)c1C2=O)CC(O)(C(C)=NO)CC3OC1CC(N)C(O)C(C)O1 (configuration not stated),5.56 µM
3,COc1ccc(OCCN2CCC(C(=O)NC(c3ccsc3)c3ccccc3C)CC2)cc1 (configuration not stated),> 70 µM (inactive)
4,Cc1ccc(NC(=O)CSC(C)C(=O)OCc2cc(=O)oc3cc(O)ccc23)cc1 (configuration not stated),> 70 µM (inactive)
5,Cc1cc(C(=O)Cn2nnc3ccccc3c2=O)c(C)n1-c1ccccc1F,> 70 µM (inactive)
6,O=C(c1ccc(S(=O)(=O)N2CCCCC2)cc1)N1CCN(Cc2ccc3c(c2)OCO3)CC1,> 70 µM (inactive)
7,COc1ccc(C2c3ccc(O)cc3Oc3ncn4nc(-c5cccnc5)nc4c32)cc1OC (configuration not stated),30.6 µM
8,Cc1ccc(C)c(N2CCN(S(=O)(=O)c3ccc4c(c3)OCCO4)CC2)c1,> 70 µM (inactive)
9,CC(C)Sc1nnc([C@H](Cc2c[nH]c3ccccc23)NC(=O)OC(C)(C)C)o1,> 70 µM (inactive)
10,O=c1cc(CN2CCN(S(=O)(=O)/C=C/c3ccccc3)CC2)c2ccc(O)cc2o1,> 70 µM (inactive)
11,C[C@H]1CN([C@@H](C)CO)C(=O)Cc2cc(NC(=O)Nc3ccccc3)ccc2O[C@@H]1CN(C)Cc1ccccc1,37.9 µM
12,C[C@@H]1CN([C@@H](C)CO)C(=O)c2cc(NC(=O)Cc3cn(C)c4ccccc34)ccc2O[C@@H]1CN(C)S(=O)(=O)c1ccc(F)cc1,> 70 µM (inactive)
13,COc1ccc(/C=C/C(=O)c2cc(F)ccc2OC(=O)c2ccccc2OC)cc1OC,23.5 µM
14,COc1ccc(/C=C2\CN(Cc3ccccc3)C/C(=C\c3ccc(OC)c(O)c3)C2=O)cc1O,6.12 µM
15,CCOC(=O)C1(CCOc2ccccc2)CCN(Cc2cccc(O)c2)CC1,> 70 µM (inactive)
16,COC(=O)c1ccc(NC(=S)NCCc2cccc(C)c2)cc1,> 70 µM (inactive)
17,COc1ccc(/C=C2\Sc3ccc(C(=O)NCCCN4CCCC4)cc3N(C)C2=O)cc1OC,35.2 µM
18,CCOC(=O)C1(CCOc2ccccc2)CCN(Cc2ccc(O)cc2)CC1,> 70 µM (inactive)
19,Cc1ccc2c(c1)Oc1ccc(NC(=O)CCl)cc1C(=O)N2,8.51 µM
20,CCOC(=O)c1c(CNCCN(CC)CC)n(C)c2cc(Br)c(OC)cc12,> 70 µM (inactive)
21,CN(c1ccccc1)S(=O)(=O)c1cc(C(=O)N2CCN(c3ncccn3)CC2)ccc1Cl,> 70 µM (inactive)
22,CN(C)CCCN(C(=O)c1ccc(S(=O)(=O)N2CCc3ccccc32)cc1)c1nc2c(Cl)cccc2s1,16.5 µM
23,CC(=O)OC1CCC2C3CCC4=C(CC(F)C(=O)C4)C3CCC12C (configuration not stated),> 70 µM (inactive)
24,Cc1cccn2c(CN(C)C3CCCc4ccccc43)c(C(=O)N3CCOCC3)nc12 (configuration not stated),> 70 µM (inactive)
25,CCOC(=O)Oc1c(OC)cc(C(=O)O[C@@H]2C[C@@H]3CN4CCc5c([nH]c6cc(OC)ccc56)[C@H]4C[C@@H]3[C@H](C(=O)OC)[C@H]2OC)cc1OC,27.3 µM

row,Structure (SMILES),AC50
1,COc1ccc(C[C@@H]2OC3(C=CC(=O)C=C3)O[C@H]2Cc2ccc(OC)cc2)cc1,1.69 µM
2,CCc1cc(OCCCCNCc2ccccc2)ccc1Cl,21.5 µM
3,CCOc1cc(N2CCOCC2)c(OCC)cc1NC(=O)COC(=O)[C@H](Cc1c[nH]c2ccccc12)NC(C)=O,> 70 µM (inactive)
4,CCOc1cc(/C=C/C(=O)c2ccc(O)cc2)ccc1OCC(=O)N(C)C,39.4 µM
5,Cc1noc(C)c1S(=O)(=O)Nc1ccc2c(c1)CC(=O)N([C@@H](C)CO)C[C@@H](C)[C@@H](CN(C)S(=O)(=O)c1ccc(F)cc1)O2,> 70 µM (inactive)
6,CCSc1nnc([C@H](Cc2c[nH]c3ccccc23)NC(=O)OC(C)(C)C)o1,> 70 µM (inactive)
7,Cc1ccc(S(=O)(=O)N(C)c2ccc(OC(=O)COc3ccccc3)cc2)cc1,> 70 µM (inactive)
8,CC12CCC3c4ccc(O)cc4CCC3C1CCC2=O (configuration not stated),> 70 µM (inactive)
9,O=C(Nc1nccs1)c1ccc(-c2ccccc2[N+](=O)[O-])o1,> 70 µM (inactive)
10,C=CC[C@H](CC(=O)N(CCO)Cc1ccccc1)C(=O)N[C@H](COC(=O)[C@@H](CC=C)Cc1ccc(F)cc1)Cc1c[nH]c2ccccc12,30.8 µM
11,CC(=O)Oc1ccc(C2OC(=O)c3ccccc3N2C(C)=O)cc1 (configuration not stated),> 70 µM (inactive)
12,Cc1noc(C)c1-c1ccc(C(=O)NCc2ccc(Cl)cc2)c2occc12,> 70 µM (inactive)
13,CCOC(=O)c1c(CN2CCN(C)CC2)n(C)c2cc(Br)c(OC)cc12,22.2 µM
14,O=C(COC(=O)c1ccccc1NC(=O)c1ccco1)NCCC1=CCCCC1,> 70 µM (inactive)
15,Cc1c(O)ccc2c(CN3CCN(C/C=C/c4ccccc4)CC3)cc(=O)oc12,> 70 µM (inactive)
16,CCOC(=O)c1c(CN2CCOCC2)n(-c2ccccc2)c2cc(Br)c(O)cc12,> 70 µM (inactive)
17,COc1ccc(C[C@@H]2CN3C(=NC[C@@H]3Cc3ccc(O)cc3)N2C[C@H](C)NC(=O)CCC2CCCCC2)cc1,18.8 µM
18,CC[C@]12c3[nH]c4cc(-c5ccco5)ccc4c3CCN1C(=O)[C@@H](CC(=O)NCc1ccc(OC)c(OC)c1)C[C@@H]2C(=O)N1CCN(C(=O)c2ccco2)CC1,> 70 µM (inactive)
19,CCOC(=O)C1(CCOc2ccccc2)CCN(Cc2ccccc2O)CC1,> 70 µM (inactive)
20,COc1c(Br)cc(C(N)=O)cc1OCc1ccccc1,> 70 µM (inactive)
21,O=C(/C=C/c1ccc(N2CCCCC2)c([N+](=O)[O-])c1)c1ccc(O)cc1,12 µM
22,CCOC(=O)c1c(CN2CCN(C)CC2)n(-c2ccccc2)c2cc(Br)c(O)cc12,23.9 µM
23,CCOC(=O)c1c(CN2CCOCC2)n(-c2ccccc2)c2ccc(O)cc12,> 70 µM (inactive)
24,COc1ccc(-c2nnc3ccc(SCC(=O)Nc4nc5ccccc5s4)nn23)cc1OC,> 70 µM (inactive)
25,NC(Cc1ccc(C(F)(F)F)cc1)c1csc(Nc2ccc(C(=O)NCCCO)cn2)n1 (configuration not stated),35.1 µM

# Test system: not listed separately
# Assay: as above
# Conditions: NIH3T3/HeLa viability, CellTiter-Glo ATP luminescence, 24 h; at 35 µM (top of the series)
row,Structure (SMILES),"activity change, negative = cytotoxicity"
1,CCOc1ccc2nc(SCC(=O)c3ccc(Cl)s3)sc2c1,-9.42% (inactive)
2,CCCCn1c(SCC(=O)NC2CCS(=O)(=O)C2)nc2ccccc2c1=O (configuration not stated),-8.17% (inactive)
3,O=C(NCCN1CCOCC1)c1cccnc1SCc1ccccc1Cl,-5.22% (inactive)
4,CN1C(=O)NC(c2ccccc2)C2=C1CN(c1cccc(C(F)(F)F)c1)C2=O (configuration not stated),-4.45% (inactive)
5,Cc1c(-n2cc(C(=O)c3ccccc3O)cc(C#N)c2=O)c(=O)n(-c2ccccc2)n1C,-5.22% (inactive)
6,Cc1ccc(NC(=O)NC(=O)CN2CCC(C(N)=O)CC2)c(C)c1,-4.84% (inactive)
7,O=C(NCc1ccncc1)Nc1cc(Cl)ccc1Cl,-6.87% (inactive)
8,Cc1ccc(S(=O)(=O)N2CCC(C(=O)Nc3ccc(S(=O)(=O)N4CCCC4)cc3)CC2)cc1,-22.6% (inactive)
9,CCCNC(=O)c1cccc(COc2ccccc2OC)c1,-6.42% (inactive)
10,Cc1nnc(N/N=C/c2ccc(-c3ccccc3F)o2)n1N,-8.41% (inactive)
11,Cc1noc(C)c1S(=O)(=O)Nc1ccc2c(c1)CC(=O)N([C@@H](C)CO)C[C@H](C)[C@@H](CN(C)S(=O)(=O)c1ccc(F)cc1)O2,2.55% (inactive)
12,C[C@@H]1CN([C@@H](C)CO)C(=O)c2cccc(NS(C)(=O)=O)c2O[C@H]1CN(C)Cc1ccc(Oc2ccccc2)cc1,-11.5% (inactive) and -6.47% (inactive)
13,C[C@H]1CCCC(=O)CCCCCc2cc(O)cc(O)c2C(=O)O1,-12.8% (inactive)
14,COc1ccc(Cl)cc1NC(=O)COC(=O)C1CC1,-9.32% (inactive)
15,C[C@H](CO)N1C[C@H](C)[C@H](CN(C)Cc2ccc(Oc3ccccc3)cc2)Oc2c(NS(C)(=O)=O)cccc2C1=O,-6.82% (inactive)
16,C[C@@H]1CN([C@@H](C)CO)C(=O)c2cc(NC(=O)Cc3cn(C)c4ccccc34)ccc2O[C@H]1CN(C)S(=O)(=O)c1ccc(F)cc1,3.15% (inactive)

row,Structure (SMILES),"activity change, negative = cytotoxicity"
1,C[C@@H]1O[C@@H](O[C@@H]2C(=O)c3c(O)cc(O)cc3O[C@H]2c2ccc(O)c(O)c2)[C@H](O)[C@H](O)[C@H]1O,-7.93% (inactive)
2,CSc1cccc(NC(=O)CN(C)S(=O)(=O)c2ccc(F)cc2)c1,-8.11% (inactive)
3,CC(=O)OCC(=O)NCc1ccc2c(c1)OCO2,-5.14% (inactive)
4,C[C@@H]1CN([C@H](C)CO)C(=O)c2cc(NC(=O)Cc3cn(C)c4ccccc34)ccc2O[C@H]1CN(C)S(=O)(=O)c1ccc(F)cc1,-11.7% (inactive) and -2.14% (inactive)
5,C[C@H]1CN([C@@H](C)CO)C(=O)c2cccc(NS(C)(=O)=O)c2O[C@H]1CN(C)Cc1ccc(Oc2ccccc2)cc1,-4.63% (inactive)
6,O=C(c1c(O)cc(O)cc1O)C1c2c(cc(O)c3c2O[C@H](c2ccc(O)cc2)[C@@H](O)C3)OC1c1ccc(O)cc1 (some centres not stated),-5.6% (inactive)
7,COc1ccc(C2c3ccc(O)cc3Oc3ncn(CCCO)c(=N)c32)cc1 (configuration not stated),-8.08% (inactive)
8,CC(C)Cn1c(N)c(C(=O)COC(=O)c2ccc(O)cc2)c(=O)n(C)c1=O,-14.4% (inactive)
9,O=C(/C=C/c1ccccc1)Nc1scc(-c2ccccc2)c1C(=O)O,-11.6% (inactive)
10,Cc1ccc(N2CC(C(=O)Nc3nc4ccc(S(C)(=O)=O)cc4s3)CC2=O)cc1 (configuration not stated),-4.02% (inactive)
11,CCN1C(=O)C2C(c3ccccc3F)NC(Cc3ccc(O)cc3)(C(=O)OC)C2C1=O (configuration not stated),-13.9% (inactive)
12,CN(C)C(=O)CSc1nnc([C@H](Cc2ccccc2)NC(=O)OC(C)(C)C)o1,-9.45% (inactive)
13,O=C(CN1CCN(c2ccc(O)cc2)CC1)Nc1cc(S(=O)(=O)N2CCOCC2)ccc1Cl,-13.3% (inactive)
14,S=C(NCCc1ccccc1)Nc1ccccn1,-3.47% (inactive)
15,CCOc1ccc(NC(=O)CCc2nnc3ccc(N4CCN(C)CC4)nn23)cc1,-6.93% (inactive)
16,C=CCn1c(SCC(=O)Nc2ccc(N(C)C)cc2)nnc1-c1cccc(C)c1,-10.1% (inactive)
